This note sets out measurements from patent US20250312258A1, “2,3-PYRROLIDINEDIONE CONJUGATES AND METHODS OF USING THEREOF” (North Carolina State University, priority 2022, published 2025).

Values after ≈ are worked out from the molar mass of the structure shown.

One assay relates to MRSA 33591. Put plainly: Broth microdilution MIC, MRSA 33591. The class given is cell-based. The note with it: Staphylococcus aureus, read-out: MIC (MRSA 33591). For orientation: In broth dilution the organism is exposed to a series of concentrations in liquid medium.
The test system of the next assay is S. aureus 29213. Put plainly: Broth microdilution MIC, S. aureus 29213. The note with it: Staphylococcus aureus, 29213; read-out: MIC (S. aureus 29213). It is filed as cell-based, Staphylococcus aureus.
For the next assay, the system named is S. aureus 25923. Put plainly: Broth microdilution MIC, S. aureus 25923. It is filed as cell-based, Staphylococcus aureus. As to conditions: Staphylococcus aureus, 25923; read-out: MIC (S. aureus 25923).
A further assay relates to VRSA. Put plainly: MIC against VRSA (Table 2). The note with it: Staphylococcus aureus, read-out: MIC (VRSA). It is filed as cell-based.
Another assay relates to S. aureus VRS-2. Put plainly: VRSA thigh infection model in neutropenic mice. It is filed as in vivo, mouse. The note with it: 50 mg/kg PO BID q12h, 26 h post-infection, p<0.05. Here is the method:
(§1) FIG. 8 is a plot comparing the efficacy of linezolid, Compound 4 (AV-0273), and Compound 8 (AV-0267) in the S. aureus VRS-2 thigh infection model, CFU/g thigh. Test animals were rendered neutropenic with cyclophosphamide administration, 150 mg/kg on Day −4 then 100 mg/kg on Day −1 prior to infection on Day 0. On Day 0, animals were intramuscularly inoculated with 8.4×10^4 CFU/mouse (0.1 mL/animal) of the S. aureus VRS-2 strain. The vehicle and the test articles, Compound 4 (AV-0273) and Compound 8 (AV-0267), both at 100 mg/kg, were each intraperitoneally (IP) administered twice with a 12 h interval (BID q12h) at 2 and 14 h after infection. The reference standard, linezolid at 50 mg/kg, was orally (PO) administered BID q12 h starting at 2 h post-infection. Animals were sacrificed at 2 or 26 h post-infection, and the thigh tissues were harvested and weighed from each of the test animals. The bacterial counts (CFU/g thigh) of thigh tissue homogenates were measured.
as §1, with “FIG. 9” for “FIG. 8”, “of linezolid” for “of linezolid,”, “CFU/g thigh, change in bacterial counts relative to baseline count at 26h post-infection. Data represent the change in bacterial counts in thigh tissue following test article treatment relative to the initial 2 h CFU/g thigh or CFU/thigh at the time of dosing (baseline counts).” for “CFU/g thigh.”, “(BID q12 h)” for “(BID q12h)”, “(CFU/g thigh and CFU/thigh)” for “(CFU/g thigh)”, “were compared.” for “were measured.”
Example vancomycin-2,3-pyrrolidinediones conjugates were evaluated using an in vivo tissue infection model with vancomycin resistant MRSA:
Animal model: Murine thigh infection
Bacteria: VRSA (VRS-2). Gram Positive, Staphylococcus aureus (VRSA, VRS-2), Mouse Infected Thigh Model. VRS-2 is VanA producing SCC Mec II st5 train.
Vancomycin conjugates dose: 100 mg/Kg intraperitoneally (IP).
Application: This model assesses the antimicrobial efficacy of test articles in a tissue infection model with vancomycin resistant MRSA. Microbial counts are measured. […]

Usually MIC stands for the lowest concentration that inhibits growth of the organism. With `CCC1C(c2ccc(C(F)(F)F)cc2)=C(O)C(=O)N1CCCCNC` (stereo not shown) [Compound 2], the results for the MIC with MRSA 33591, with S. aureus 29213 and in the assay on S. aureus 25923 were 2 µg/mL (≈ 5.61 µM), 1 µg/mL (≈ 2.81 µM) and 2 µg/mL (≈ 5.61 µM), respectively.
With `CCC1C(c2ccc(C(F)(F)F)cc2)=C(O)C(=O)N1CCCCCCNC` (stereo not shown) [Compound 3], the MIC in the assay on MRSA 33591, in the assay on S. aureus 29213 and with S. aureus 25923 was 2 µg/mL (≈ 5.2 µM) throughout.
As to `CCC1C(c2ccc(C(F)(F)F)cc2)=C(O)C(=O)N1c1ccc(NC)cc1` (stereo not shown) [Compound 5], the values for the MIC with MRSA 33591, with S. aureus 29213 and with S. aureus 25923 were 1 µg/mL (≈ 2.66 µM), 1 µg/mL (≈ 2.66 µM) and 2 µg/mL (≈ 5.31 µM), respectively.
As to `CCC1C(c2ccc(C(F)(F)F)cc2)=C(O)C(=O)N1CCOCCNC` (stereo not shown) [Compound 6], the MIC in the assay with S. aureus 29213 and with S. aureus 25923 was 1 µg/mL (≈ 2.69 µM) in each case.
For `CCC1C(c2ccc(C(F)(F)F)cc2)=C(O)C(=O)N1CCOCCOCCOCCNC` (stereo not shown) [Compound 7], the MIC in the assay on MRSA 33591 was 1 µg/mL (≈ 2.17 µM); with VRSA it was 4 µg/mL (≈ 8.69 µM); in the assay with S. aureus 29213, 1 µg/mL (≈ 2.17 µM); in the assay on S. aureus 25923, 2 µg/mL (≈ 4.34 µM).
For `CCC1C(c2ccc(C(F)(F)F)cc2)=C(O)C(=O)N1CCCNCCCCNCCCNC` (stereo not shown) [Compound 9b], the MIC in the assay with MRSA 33591 is 1 µg/mL (≈ 2.13 µM); with S. aureus 29213, 1 µg/mL (≈ 2.13 µM); in the assay with S. aureus 25923, 0.5 to 1 µg/mL (≈ 1.06 to 2.13 µM).
Take `CCC1C(c2ccc(C(F)(F)F)cc2)=C(O)C(=O)N1CCN(CCNC)CCN1C(=O)C(O)=C(c2ccc(C(F)(F)F)cc2)C1CC` (stereo not shown) [Compound 10]: the values for the MIC with MRSA 33591, in the assay with S. aureus 29213 and in the assay with S. aureus 25923 were 8 µg/mL (≈ 12 µM), 8 µg/mL (≈ 12 µM) and 16 µg/mL (≈ 23.9 µM), respectively.
On to `CC(=O)NC[C@H]1CN(c2ccc(N3CCOCC3)c(F)c2)C(=O)O1` [Linezolid, reference compound], for which the “reduction in bacterial counts compared to the vehicle control group” value in the assay on S. aureus VRS-2 is listed as 100%.
